Reference: patent US20240132461A1, “FLAVONE DEAZA SPERMIDINE ANALOGUES AND THEIR USE TREATING CANCER” (FLORATEK PHARMA S.A., priority 2021, published 2024)
Where a name gives a salt, the structure may show the parent alone. Blank lines part the entries; values can stand above or below the molecule they belong to.

Assays:
[1] = system: pancreatic carcinoma cell; test: Cell viability assay, pancreatic carcinoma cell lines (summary); assay type: cell-based; details: summary of Table 12; read-out: IC50s, pancreatic carcinoma cell growth
Procedure: (§1) Antitumor activity of the compounds and doxorubicin as a positive control was assessed by using the CellTiter-Blue Cell Viability Assay (Promega, #G8082) or CellTiter-Glow® Luminescent Cell Viability assay (Promega # G7572) according to the manufacturer's instructions. The compounds were tested at 5 or 6 concentrations in half-log increments (highest concentration 30 μM-100 μM) in duplicate or triplicate well conditions.
(§2) Tumor cells were grown at 37° C. in a humidified atmosphere with 5% CO2 in RPMI 1640 or DMEM medium, supplemented with 10% (v/v) fetal calf serum and 50 μg/ml gentamicin for up to 20 passages, and were passaged once or twice weekly. Cells were harvested using TrypLE or PBS buffer containing 1 mM EDTA, and the percentage of viable cells is determined using a CASY Model TT cell counter (OMNI Life Science). Cells were harvested from exponential phase cultures, counted and plated in 96 well flat-bottom microtiter plates at a cell density depending on the cell line's growth rate (4,000-20,000 cells/well depending on the cell line's growth rate, up to 60,000 for hematological cancer cell lines) in RPMI 1640 or DMEM medium supplemented with 10% (v/v) fetal calf serum and 50 μg/ml gentamicin (140 μl/well). Cultures were incubated at 37° C. and 5% CO2 in a humidified atmosphere. After 24 h, 10 μl of test compounds or control medium are added, and left on the cells for another 72 h. Compounds were serially diluted in DMSO, transferred in cell culture medium, and added to the assay plates. The DMSO concentration was kept constant at <0.3% v/v across the assay plate. Viability of cells was quantified by the CellTiter-Blue® cell viability assay (Promega G8081) or CellTiter-Glow® Luminescent Cell Viability assay (Promega # G7572). Fluorescence (FU) was measured by using the EnSpire® multimode plate reader (Perkin Elmer) (excitation λ=570 nm, emission λ=600 nm) or luminescent detection of ATP in viable cells was used as parameter for proliferation. Luminescence was measured with the microplate luminometer (Promega or Perkin Elmer).
(§3) Sigmoidal concentration-response curves were fitted to the data points (test-versus-control, T/C values) obtained for each tumor model using 4 parameter non-linear curve fit (Charles River DRS Datawarehouse Software) or with GraphPad prism 5.02 software. IC50 values are reported as absolute IC50 values, being the concentration of test compound at the intersection of the concentration-response curves with T/C=50%

Panc-1 = test: Cell viability assay, pancreatic carcinoma cell line Panc-1; assay type: cell-based; details: Homo sapiens; Panc-1 pancreatic carcinoma cell line
Procedure: as §1, §2, §3

MIA-Pa-Ca-2 = test: Cell viability assay, pancreatic carcinoma cell line MIA-Pa-Ca-2; assay type: cell-based; details: Homo sapiens, MIA PaCa-2; MIA-Pa-Ca-2 pancreatic carcinoma cell line
Procedure: as §1, §2, §3

[2] = In vivo maximum tolerated dose in NOG mice; details: for tolerability at the highest dose administered: 8-10 mg/kg i.p., daily or every other day over 8 days; for MTD at 8 days: mouse, in vivo, ip, repeated i.p. administration, MTD not reached, read-out: maximum tolerated dose (MTD), estimated
Procedure: In order to evaluate the general toxicity of selected SND compounds in an animal model, a maximum tolerated dose (MTD) in NOG mice has been undertaken. Three mice per group were treated daily or every other day over 8 days at various doses between 5 mg/kg and 10 mg/kg. Administration of the compounds was i.p. A stock solution of the compounds (40 mg/ml in DMSO) was prepared and frozen at −20° C. in aliquots for each treatment. […] Body weights were measured before each treatment. Mice were further observed for 1 week after the last treatment.

CALU-6 = test: Cell viability assay, non-small cell lung carcinoma cell line CALU-6; assay type: cell-based; details: Homo sapiens; CALU-6 non-small cell lung carcinoma cell line
Procedure: as §1, §2, §3

HL-60 = test: Cell viability assay, acute promyelocytic leukemia cell line HL-60; assay type: cell-based; details: Homo sapiens; HL-60 acute promyelocytic leukemia cell line
Procedure: as §1, §2, §3

NCI-H1299 = test: Cell viability assay, non-small cell lung carcinoma cell line NCI-H1299; assay type: cell-based; details: Homo sapiens
Procedure: as §1, §2, §3

lung carcinoma cell = test: Cell viability assay, lung carcinoma cell lines (summary); assay type: cell-based; details: summary of Tables 7A-E; read-out: IC50s, lung carcinoma cell growth
Procedure: as §1, §2, §3

H69AR = test: Cell viability assay, resistant small cell lung carcinoma cell line H69AR; assay type: cell-based; details: H69AR multiple drug resistant small cell lung carcinoma cell line
Procedure: as §1, §2, §3
The multiple drug resistant cell line H69AR obtained from ATCC, was established from NCI-H69 cells that were grown in the presence of increasing concentrations of adriamycin (doxorubicin). The H69AR cell line is approximately 50-fold resistant to adriamycin as compared to the parental NCI-H69 cell line. SND141, SND142, SND143, SND146, SND147 and SND148 inhibited the resistant cell line H69AR with IC50s below 5 μM, as presented in Table 8.

SC6 = test: PDX cytotoxicity assay, small cell lung carcinoma PDX SC6; assay type: cell-based
Procedure: PDX-derived cell cultures were obtained from tumors explanted from mice and isolated by mechanical and enzymatic dissociation. […] Cells were harvested and seeded in 96-wells plates at a density of 1.25 to 5×10^3 cells/well for cytotoxicity assays. Cells were incubated 48 h at 37° C. prior to addition of test molecules and vehicle (DMSO, 0.1%) at desired final concentrations. Cell viability was assessed before drugs' addition (T0) and 5 days after test molecules addition by measuring ATP cell content using CellTiter-Glo® Luminescent Cell Viability Assay (Promega) according to the manufacturer's instructions. Luciferase activity was measured on a luminometer (PerkinElmer® EnVision™). Each concentration of compounds was tested in triplicate.
Viability was calculated as a percentage of ATP value compared to vehicle treated controls.
For PDX primary cell cultures, the tumour tissue was washed with PBS containing antibiotic-antimycotic and non-tumour tissue and necrotic tumour tissues were separated. The tumour tissue was transferred to a new dish and cut into 1˜2 mm^3 fragments, resuspended in RPMI-1640 medium and centrifuged at 1,200 rpm for 6 min at room temperature. The pelleted material was resuspended with 15 mL of Tumour Cell Digestion Solution and incubated at 37° C. for 1 hour with agitation. […]

SMILES: COc1c(O)ccc2c(=O)cc(-c3ccc(CCCCN4CCN(C)CC4)cc3)oc12 [SND142, 7-Hydroxy-8-methoxy-2-(4-(4-(4-methylpiperazin-1-yl)butyl)phenyl)-4H-chromen-4-one]
- tolerability at the highest dose administered [2]: well tolerated
- MTD at 8 days [2]: > 10 mg/kg
- IC50 (CALU-6): 1.7 µM
- IC50 [1]: < 10 µM
- IC50 (HL-60): 3.48 µM
- IC50 (NCI-H1299): 1 µM
- IC50 (Panc-1): 1.6 µM
- IC50 (lung carcinoma cell): < 20 µM
- IC50 (MIA-Pa-Ca-2): 1 µM

SMILES: COc1c(O)ccc2c(=O)cc(-c3ccc(CCCCN4CCOCC4)cc3)oc12 [SND147, 7-hydroxy-8-methoxy-2-(4-(4-morpholinobutyl)phenyl)-4H-chromen-4-one]
- tolerability at the highest dose administered [2]: well tolerated
- MTD at 8 days [2]: > 10 mg/kg
- IC50 (CALU-6): 12.2 µM
- IC50 [1]: < 10 µM
- IC50 (H69AR): 2.6 µM
- IC50 (H69AR; Homo sapiens, H69AR): < 5 µM
- IC50 (Panc-1): 3.8 µM
- IC50 (lung carcinoma cell): < 20 µM
- IC50 (MIA-Pa-Ca-2): 2.02 µM

SMILES: CN(CCCc1ccc(-c2cc(=O)c3ccc(O)c(O)c3o2)cc1)CCN1CCCCC1 [SND171, 7,8-Dihydroxy-2-(4-(3-(methyl(2-(piperidin-1-yl)ethyl)amino)propyl)phenyl)-4H-chromen-4-one dihydrochloride]
- IC50 (SC6): 15 µM

Now from value to molecule:

- IC50 [1]: < 10 µM
- IC50 (Panc-1): 3.91 µM
- IC50 (MIA-Pa-Ca-2): 2.3 µM
SMILES: COc1c(O)ccc2c(=O)cc(-c3ccc(CCCCN(C)C)cc3)oc12 [SND141, 2-(4-(4-(dimethylamino)butyl)phenyl)-7-hydroxy-8-methoxy-4H-chromen-4-one]

- IC50 (NCI-H1299): 5.8 µM
SMILES: COc1c(O)ccc2c(=O)cc(-c3ccc(CN4CCCC4)cc3)oc12 [SND163]

- IC50 (NCI-H1299): 2.7 µM
- IC50 (lung carcinoma cell): < 20 µM
SMILES: COc1c(O)ccc2c(=O)cc(-c3ccc(CN(C)CCN4CCCCC4)cc3)oc12 [SND167]

- IC50 (NCI-H1299): 3.7 µM
- IC50 (lung carcinoma cell): < 20 µM
SMILES: COc1c(O)ccc2c(=O)cc(-c3ccc(CN4CCCCC4)cc3)oc12 [SND168]
